{"source": "patent US20250122222A1", "about": "“HETEROCYCLIC COMPOUNDS AND METHODS OF USE” (AMGEN INC., priority 2021, published 2025)", "key": {"[1]": {"target": "His-tagged KRAS G12D protein (Homo sapiens, UniProt P01116, G12D)", "sequence (P01116 1-188 isoform P01116-2 G12D)": "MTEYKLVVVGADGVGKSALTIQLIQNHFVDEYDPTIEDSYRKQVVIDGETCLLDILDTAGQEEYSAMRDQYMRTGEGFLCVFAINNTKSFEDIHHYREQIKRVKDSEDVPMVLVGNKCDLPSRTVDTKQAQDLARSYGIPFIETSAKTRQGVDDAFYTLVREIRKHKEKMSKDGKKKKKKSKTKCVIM", "assay": "KRAS G12D TR-FRET assay (binding)", "conditions": "biotinylated KRPep-2d substrate, GDP in assay buffer", "method": "The plate was incubated for 30 minutes at room temperature. Biotinylated KRPep-2d substrate (Amgen) was diluted to 20 nM in Assay Buffer and 2 L was added to all wells and incubated for 1 hour at room temperature. Detection Reagent (0.4 nM LANCE Eu-W1024 Anti-6xHis (Perkin Elmer AD0401), 5 nM streptavidin-d^2 (Cisbio 610SADLA)) was prepared in Assay Buffer, then 4 μL was added to the plate and incubated for 1 hour at room temperature."}, "[2]": {"tested_on": "Phosphorylation of ERK1/2 in AsPC-1 cells", "assay": "Phospho-ERK1/2 MSD assay", "assay_type": "cell-based", "conditions": "Homo sapiens, ASPC1, read-out: 2 h p-ERK (AsPC-1 cells), IC50 (μM), 2 hours compound treatment", "description": "Sixteen hours prior to compound treatment, AsPC-1 cells were seeded in 96-well cell culture plates at a density of 25,000 cells/well and incubated at 37° C., 5% CO2. A compound dose-response titration was diluted in growth media, added to appropriate wells of a cell culture plate, and then incubated at 37° C., 5% CO2 for 2 hours."}}, "data": [{"smiles": "CCc1c(F)ccc2cc(O)cc(-c3ncc4c(N5CCOC[C@@](C)(O)C5)nc(OC[C@@]56CCCN5C[C@H](F)C6)nc4c3Cl)c12", "note": "(single isomer, unassigned) [Example 80]", "values": [{"measurement": "IC50", "setting": "[1]", "value": 4, "unit": "nM"}, {"measurement": "IC50", "setting": "[2]", "value": 0.024, "unit": "µM"}]}, {"smiles": "CCc1cccc2cc(O)cc(-c3ncc4c(N5CCCOCC5)nc(OC[C@@]56CCCN5C[C@H](F)C6)nc4c3F)c12", "note": "[Example 2, 5-Ethyl-4-(8-fluoro-2-(((2R,7aS)-2-fluorotetrahydro-1H-pyrrolizin-7a(5H)-yl)methoxy)-4-(1,4-oxazepan-4-yl)pyrido[4,3-d]pyrimidin-7-yl)naphthalen-2-ol]", "values": [{"measurement": "IC50", "setting": "[1]", "value": 1, "unit": "nM"}, {"measurement": "IC50", "setting": "[2]", "value": 0.033, "unit": "µM"}]}, {"smiles": "Oc1cc(-c2ncc3c(N4CCCOCC4)nc(OC[C@@]45CCCN4C[C@H](F)C5)nc3c2F)c2c(F)c(F)ccc2c1", "note": "[Example 3, 5,6-Difluoro-4-(8-fluoro-2-(((2R,7aS)-2-fluorotetrahydro-1H-pyrrolizin-7a(5H)-yl)methoxy)-4-(1,4-oxazepan-4-yl)pyrido[4,3-d]pyrimidin-7-yl)naphthalen-2-ol]", "values": [{"measurement": "IC50", "setting": "[1]", "value": 2, "unit": "nM"}, {"measurement": "IC50", "setting": "[2]", "value": 0.047, "unit": "µM"}]}, {"smiles": "CCc1c(F)ccc2cc(O)cc(-c3ncc4c(N5CCSCC5)nc(OC[C@@]56CCCN5C[C@H](F)C6)nc4c3F)c12", "note": "[Example 4, 5-Ethyl-6-fluoro-4-(8-fluoro-2-(((2R,7aS)-2-fluorotetrahydro-1H-pyrrolizin-7a(5H)-yl)methoxy)-4-thiomorpholino-pyrido[4,3-d]pyrimidin-7-yl)naphthalen-2-ol]", "values": [{"measurement": "IC50", "setting": "[1]", "value": 4, "unit": "nM"}, {"measurement": "IC50", "setting": "[2]", "value": 0.486, "unit": "µM"}]}, {"smiles": "CCc1c(F)ccc2cc(O)cc(-c3ncc4c(N5CCCSCC5)nc(OC[C@@]56CCCN5C[C@H](F)C6)nc4c3F)c12", "note": "[Example 5, 5-Ethyl-6-fluoro-4-(8-fluoro-2-(((2R,7aS)-2-fluorotetrahydro-1H-pyrrolizin-7a(5H)-yl)methoxy)-4-(1,4-thiazepan-4-yl)pyrido[4,3-d]pyrimidin-7-yl)naphthalen-2-ol]", "values": [{"measurement": "IC50", "setting": "[1]", "value": 2, "unit": "nM"}, {"measurement": "IC50", "setting": "[2]", "value": 0.088, "unit": "µM"}]}, {"smiles": "CCc1c(F)ccc2cc(O)cc(-c3ncc4c(N5[C@@H]6CC[C@H]5COC6)nc(OC[C@@]56CCCN5C[C@H](F)C6)nc4c3F)c12", "note": "[Example 6, 4-(4-((1R,5S)-3-Oxa-8-azabicyclo[3.2.1]octan-8-yl)-8-fluoro-2-(((2R,7aS)-2-fluorotetrahydro-1H-pyrrolizin-7a(5H)-yl)methoxy)pyrido [4,3-d]pyrimidin-7-yl)-5-ethyl-6-fluoronaphthalen-2-ol]", "values": [{"measurement": "IC50", "setting": "[1]", "value": 69, "unit": "nM"}, {"measurement": "IC50", "setting": "[2]", "value": 1.77, "unit": "µM"}]}, {"smiles": "CCc1cccc2cc(O)cc(-c3ncc4c(N5CCOCC(F)(F)C5)nc(OC[C@@]56CCCN5C[C@H](F)C6)nc4c3F)c12", "note": "[Example 7, 4-(4-(6,6-Difluoro-1,4-oxazepan-4-yl)-8-fluoro-2-(((2R,7aS)-2-fluorotetrahydro-1H-pyrrolizin-7a(5H)-yl)methoxy)pyrido [4,3-d]pyrimidin-7-yl)-5-ethylnaphthalen-2-ol]", "values": [{"measurement": "IC50", "setting": "[1]", "value": 2, "unit": "nM"}, {"measurement": "IC50", "setting": "[2]", "value": 0.046, "unit": "µM"}]}, {"smiles": "CN1C[C@H](F)C[C@H]1COc1nc(N2CCCOCC2)c2cnc(-c3cc(O)cc4ccc(F)c(F)c34)c(F)c2n1", "note": "[Example 8, 5,6-Difluoro-4-(8-fluoro-2-(((2S,4R)-4-fluoro-1-methylpyrrolidin-2-yl)methoxy)-4-(1,4-oxazepan-4-yl)pyrido[4,3-d]pyrimidin-7-yl)naphthalen-2-ol]", "values": [{"measurement": "IC50", "setting": "[1]", "value": 5, "unit": "nM"}, {"measurement": "IC50", "setting": "[2]", "value": 0.103, "unit": "µM"}]}, {"smiles": "CCc1c(F)ccc2cc(O)cc(-c3ncc4c(N5CCCOCC5)nc(OC[C@@H]5C[C@@H](F)CN5C)nc4c3F)c12", "note": "[Example 9, 5-Ethyl-6-fluoro-4-(8-fluoro-2-(((2S,4R)-4-fluoro-1-methylpyrrolidin-2-yl)methoxy)-4-(1,4-oxazepan-4-yl)pyrido[4,3-d]pyrimidin-7-yl)naphthalen-2-ol]", "values": [{"measurement": "IC50", "setting": "[1]", "value": 8, "unit": "nM"}, {"measurement": "IC50", "setting": "[2]", "value": 0.353, "unit": "µM"}]}, {"smiles": "CCc1cccc2cc(O)cc(-c3ncc4c(N5CC6COC(C6)C5)nc(OC[C@@]56CCCN5C[C@H](F)C6)nc4c3F)c12", "note": "(stereo partly drawn) [Example 10, 4-(4-(6-Oxa-3-azabicyclo[3.2.1]octan-3-yl)-8-fluoro-2-(((2R,7aS)-2-fluorotetrahydro-1H-pyrrolizin-7a(5H)-yl)methoxy)pyrido [4,3-d]pyrimidin-7-yl)-5-ethylnaphthalen-2-ol]", "values": [{"measurement": "IC50", "setting": "[1]", "value": 8, "unit": "nM"}, {"measurement": "IC50", "setting": "[2]", "value": 0.277, "unit": "µM"}]}, {"smiles": "C#Cc1cccc2cc(O)cc(-c3ncc4c(N5CCCOCC5)nc(OC[C@@H]5C[C@@H](F)CN5C)nc4c3F)c12", "note": "[Example 12, 5-Ethynyl-4-(8-fluoro-2-(((2S,4R)-4-fluoro-1-methylpyrrolidin-2-yl)methoxy)-4-(1,4-oxazepan-4-yl)pyrido[4,3-d]pyrimidin-7-yl)naphthalen-2-ol]", "values": [{"measurement": "IC50", "setting": "[1]", "value": 4, "unit": "nM"}, {"measurement": "IC50", "setting": "[2]", "value": 0.131, "unit": "µM"}]}, {"smiles": "Oc1cc(-c2ncc3c(N4CCCOCC4)nc(OCC45CCCN4CCC5)nc3c2F)c2ccccc2c1", "note": "[Example 13, 4-(8-Fluoro-4-(1,4-oxazepan-4-yl)-2-((tetrahydro-1H-pyrrolizin-7a(5H)-yl)methoxy)pyrido [4,3-d]pyrimidin-7-yl)naphthalen-2-ol]", "values": [{"measurement": "IC50", "setting": "[1]", "value": 11, "unit": "nM"}, {"measurement": "IC50", "setting": "[2]", "value": 4.18, "unit": "µM"}]}, {"smiles": "Cc1c(Cl)cc2[nH]ncc2c1-c1ncc2c(N3CCCOCC3)nc(OC[C@@]34CCCN3C[C@H](F)C4)nc2c1F", "note": "[Example 15, 4-(7-(6-Chloro-5-methyl-1H-indazol-4-yl)-8-fluoro-2-(((2R,7aS)-2-fluorotetrahydro-1H-pyrrolizin-7a(5H)-yl)methoxy)pyrido [4,3-d]pyrimidin-4-yl)-1,4-oxazepane]", "values": [{"measurement": "IC50", "setting": "[1]", "value": 36, "unit": "nM"}, {"measurement": "IC50", "setting": "[2]", "value": 4.51, "unit": "µM"}]}, {"smiles": "CN1C[C@H](F)C[C@H]1COc1nc(N2CCCOCC2)c2cnc(-c3cc(O)cc4ccccc34)c(F)c2n1", "note": "[Example 16, 4-(8-Fluoro-2-(((2S,4R)-4-fluoro-1-methylpyrrolidin-2-yl)methoxy)-4-(1,4-oxazepan-4-yl)pyrido[4,3-d]pyrimidin-7-yl)naphthalen-2-ol]", "values": [{"measurement": "IC50", "setting": "[1]", "value": 73, "unit": "nM"}, {"measurement": "IC50", "setting": "[2]", "value": 4.83, "unit": "µM"}]}, {"smiles": "CCc1c(F)ccc2cc(O)cc(-c3ncc4c(N5CCCOCC5)nc(OCC5(CN6CCOCC6)CC5)nc4c3F)c12", "note": "[Example 17, 5-Ethyl-6-fluoro-4-(8-fluoro-2-((1-(morpholinomethyl)cyclopropyl)methoxy)-4-(1,4-oxazepan-4-yl)pyrido[4,3-d]pyrimidin-7-yl)naphthalen-2-ol]", "values": [{"measurement": "IC50", "setting": "[1]", "value": 3, "unit": "nM"}, {"measurement": "IC50", "setting": "[2]", "value": 0.189, "unit": "µM"}]}, {"smiles": "Oc1cc(Cl)c(C2CC2)c(-c2ncc3c(N4CCCOCC4)nc(OC[C@@]45CCCN4C[C@H](F)C5)nc3c2F)c1", "note": "[Example 18, 3-Chloro-4-cyclopropyl-5-(8-fluoro-2-(((2R,7aS)-2-fluorotetrahydro-1H-pyrrolizin-7a(5H)-yl)methoxy)-4-(1,4-oxazepan-4-yl)pyrido[4,3-d]pyrimidin-7-yl)phenol]", "values": [{"measurement": "IC50", "setting": "[1]", "value": 2, "unit": "nM"}, {"measurement": "IC50", "setting": "[2]", "value": 0.162, "unit": "µM"}]}, {"smiles": "Oc1cc(-c2ncc3c(N4C[C@H]5COC[C@@H](C4)O5)nc(OC[C@@]45CCCN4C[C@H](F)C5)nc3c2F)c2c(F)c(F)ccc2c1", "note": "[Example 19, 4-(4-((1R,5S)-3,9-Dioxa-7-azabicyclo[3.3.1]nonan-7-yl)-8-fluoro-2-(((2R,7aS)-2-fluorotetrahydro-1H-pyrrolizin-7a(5H)-yl)methoxy)pyrido [4,3-d]pyrimidin-7-yl)-5,6-difluoronaphthalen-2-ol]", "values": [{"measurement": "IC50", "setting": "[1]", "value": 9, "unit": "nM"}, {"measurement": "IC50", "setting": "[2]", "value": 1.1, "unit": "µM"}]}, {"smiles": "CCc1cccc2cc(O)cc(-c3ncc4c(N5CCCOCC5)nc(OCC5(CN6CCOCC6)CC5)nc4c3F)c12", "note": "[Example 20, 5-Ethyl-4-(8-fluoro-2-((1-(morpholinomethyl)cyclopropyl)methoxy)-4-(1,4-oxazepan-4-yl)pyrido[4,3-d]pyrimidin-7-yl)naphthalen-2-ol]", "values": [{"measurement": "IC50", "setting": "[1]", "value": 5, "unit": "nM"}, {"measurement": "IC50", "setting": "[2]", "value": 0.336, "unit": "µM"}]}, {"smiles": "CCc1c(F)ccc2cc(O)cc(-c3ncc4c(N5C[C@H]6COC[C@@H](C5)O6)nc(OC[C@@]56CCCN5C[C@H](F)C6)nc4c3F)c12", "note": "[Example 21, 4-(4-((1R,5S)-3,9-Dioxa-7-azabicyclo[3.3.1]nonan-7-yl)-8-fluoro-2-(((2R,7aS)-2-fluorotetrahydro-1H-pyrrolizin-7a(5H)-yl)methoxy)pyrido [4,3-d]pyrimidin-7-yl)-5-ethyl-6-fluoronaphthalen-2-ol]", "values": [{"measurement": "IC50", "setting": "[1]", "value": 11, "unit": "nM"}, {"measurement": "IC50", "setting": "[2]", "value": 0.621, "unit": "µM"}]}, {"smiles": "Oc1cc(Cl)c(C2CC2)c(-c2ncc3c(N4CCCOCC4)nc(OCC4(CN5CCOCC5)CC4)nc3c2F)c1", "note": "[Example 22, 3-Chloro-4-cyclopropyl-5-(8-fluoro-2-((1-(morpholinomethyl)cyclopropyl)methoxy)-4-(1,4-oxazepan-4-yl)pyrido[4,3-d]pyrimidin-7-yl)phenol]", "values": [{"measurement": "IC50", "setting": "[1]", "value": 11, "unit": "nM"}, {"measurement": "IC50", "setting": "[2]", "value": 1.29, "unit": "µM"}]}, {"smiles": "CCc1cccc2cc(O)cc(-c3ncc4c(N5C[C@H]6COC[C@@H](C5)O6)nc(OC[C@@]56CCCN5C[C@H](F)C6)nc4c3F)c12", "note": "[Example 23, 4-(4-((1R,5S)-3,9-Dioxa-7-azabicyclo[3.3.1]nonan-7-yl)-8-fluoro-2-(((2R,7aS)-2-fluorotetrahydro-1H-pyrrolizin-7a(5H)-yl)methoxy)pyrido [4,3-d]pyrimidin-7-yl)-5-ethylnaphthalen-2-ol]", "values": [{"measurement": "IC50", "setting": "[1]", "value": 29, "unit": "nM"}, {"measurement": "IC50", "setting": "[2]", "value": 1.15, "unit": "µM"}]}, {"smiles": "CCc1c(F)ccc2cc(O)cc(-c3ncc4c(N5CCOCC5)nc(OC[C@@]56CCCN5C[C@H](F)C6)nc4c3F)c12", "note": "[Example 24, 5-Ethyl-6-fluoro-4-(8-fluoro-2-(((2R,7aS)-2-fluorotetrahydro-1H-pyrrolizin-7a(5H)-yl)methoxy)-4-morpholinopyrido [4,3-d]pyrimidin-7-yl)naphthalen-2-ol]", "values": [{"measurement": "IC50", "setting": "[1]", "value": 11, "unit": "nM"}, {"measurement": "IC50", "setting": "[2]", "value": 0.586, "unit": "µM"}]}, {"smiles": "CCc1c(F)ccc2cc(O)cc(-c3ncc4c(N5C[C@H]6C[C@@H](C5)O6)nc(OC[C@@]56CCCN5C[C@H](F)C6)nc4c3F)c12", "note": "[Example 27, 4-(4-((1R,5S)-6-Oxa-3-azabicyclo[3.1.1]heptan-3-yl)-8-fluoro-2-(((2R,7aS)-2-fluorotetrahydro-1H-pyrrolizin-7a(5H)-yl)methoxy)pyrido [4,3-d]pyrimidin-7-yl)-5-ethyl-6-fluoronaphthalen-2-ol]", "values": [{"measurement": "IC50", "setting": "[1]", "value": 62, "unit": "nM"}, {"measurement": "IC50", "setting": "[2]", "value": 2.28, "unit": "µM"}]}]}
